The record followed here is US20240382465A1, “AROMATIC ACETYLENE DERIVATIVE, AND PREPARATION METHOD THEREFOR AND USE THEREOF” (priority 2021, published 2024).

Usually IC50 stands for the concentration at which inhibition is half-maximal. By MIC is commonly meant the lowest concentration found to suppress growth.

Each structure is given as a SMILES string. Values after ≈ are worked out from the molar mass of the structure shown.

The target in the first test is recombinant Pseudomonas aeruginosa LpxC (Pseudomonas aeruginosa (strain ATCC 15692 / DSM 22644 / CIP 104116 / JCM 14847 / LMG 12228 / 1C / PRS 101 / PAO1), UniProt P47205). Kind of test: Inhibition of LpxC enzymatic activity (fluorescamine assay). It is filed as biochemical. To be noted: recombinant P. aeruginosa LpxC 5 nM, substrate 10 μM, 25° C., 120 minutes; read-out: IC50. The procedure:
The degree of inhibition of the enzymatic activity of recombinant Pseudomonas aeruginosa LpxC by the compounds of the present disclosure under in vitro conditions was determined using the following method.
The experimental procedure is briefly described as follows: The test compound was first dissolved in DMSO to prepare a 10 mM stock solution. The reaction was carried out in a 96-well microplate. First, 20 μL of recombinant Pseudomonas aeruginosa LpxC (purchased from Signalway Antibody, product number AP74647-2) was added to each well, with a final concentration of 5 nM. 5 μL of the compound to be tested was then added, and the compound was diluted 4 times to 8 concentration points with a concentration range of 0.61-10,000 nM. 5 μL of LpxC substrate UDP-3-O—(R-3-hydroxydecanoyl)-GlcNAc (purchased from Biosynth Carbosynth, product number: mu75071) was added, with a final concentration of the substrate of 10 μM. The plate was incubated at 25° C. for 120 minutes. Then 20 μL of 2.0 mg/mL fluorescamine (purchased from sigmaaldrich, product number: F9015, solvent: 1:1 dimethylformamide/acetonitrile) was added to the reaction system, and mixed well for 10 minutes of reaction. Finally, 50 μL of 200 mM sodium phosphate buffer (pH 8.0) was added to terminate the reaction. Reading was carried out using a microplate reader (BMG), and the excitation and emission wavelengths were 390 and 495 nm respectively. By comparing with the fluorescence intensity ratio of the control group ([…]), the percentage inhibition rate of the compound at each concentration was calculated.
Regarding `C[C@H](O)c1nccn1Cc1cc(-c2ccc(C#Cc3ccc(OCCN4CCOCC4)cc3)cc2)on1` [Example 80, (S)-1-(1-((5-(4-((4-(2-morpho-linoethoxy)phenyl)ethynyl)phenyl)isoxazol-3-yl)methyl)-1H-imidazol-2-yl)ethan-1-ol], the IC50 worked out at 64.9 nM. The same measure, in the same setting: to `C[C@H](O)c1nccn1Cc1cc(-c2ccc(C#Cc3ccc(CN4CCOCC4)cc3)cn2)no1` [Example 104, (S)-1-(1-((3-(5-((4-(morpholino-methyl)phenyl)ethynyl)pyridin-2-yl)isoxazol-5-yl)methyl)-1H-imidazol-2-yl)ethan-1-ol] belongs 58.6 nM. On to `C[C@H](O)c1nccn1Cc1cc(-c2ccc(C#Cc3ccc(C(=O)N4CCC(O)CC4)cc3)cc2)on1` [Example 67, (S)-(4-((4-(3-((2-(1-hydroxy-ethyl)-1H-imidazol-1-yl)methyl)isoxazol-5-yl)phenyl)ethynyl)phenyl)(4-hydroxypiperidin-1-yl)methanone], for which the IC50 worked out at 10.4 nM. For `C[C@H](O)c1nccn1Cc1cc(-c2ccc(C#Cc3ccc(S(N)(=O)=O)cc3)cc2)on1` [Example 83, (S)-4-((4-(3-((2-(1-hydroxy-ethyl)-1H-imidazol-1-yl)methyl)isoxazol-5-yl)phenyl)ethynyl) benzenesulfonamide], the IC50 turned out to be 54.7 nM. For `C[C@H](O)c1nccn1Cc1cc(-c2ccc(C#Cc3ccc(C(=O)NCCC(=O)O)cc3)cc2)on1` [Example 73, (S)-3-(4-((4-(3-((2-(1-hydroxyethyl)-1H-imidazol-1-yl)methyl)isoxazol-5-yl)phenyl)ethynyl)benzamido)propanoic acid], the IC50 is 33.1 nM.

For `C[C@H](O)c1nccn1Cc1cc(-c2ccc(C#Cc3ccc(CN4CCC(O)C(F)(F)C4)cc3)cc2)on1` (stereo partly drawn) [Example 97, 3,3-difluoro-1-(4-((4-(3-((2-((S)-1-hydroxyethyl)-1H-imidazol-1-yl)methyl)isoxazol-5-yl)phenyl)ethynyl)benzyl) piperidin-4-ol], the IC50 came to 31.9 nM. On the same count and under the same terms, the value for `C[C@H](O)c1nccn1Cc1cc(-c2ccc(C#Cc3ccc(CNCC(=O)O)nc3)cc2)on1` [Example 116] was 47.9 nM.

Turning to `C[C@H](O)c1nccn1Cc1cc(-c2ccc(C#Cc3ccc(CN4CC(CC#N)C4)nc3)cc2)on1` [Example 118, (S)-2-(1-((5-((4-(3-((2-(1-hydroxyethyl)-1H-imidazol-1-yl)methyl)isoxazol-5-yl)phenyl)ethynyl)pyridin-2-yl)methyl)azetidin-3-yl)acetonitrile], the IC50 turned out to be 16.5 nM. Take `C[C@H](O)c1nccn1Cc1cc(-c2ccc(C#Cc3ccc(N4CCC(O)CC4)cc3)cc2)on1` [Example 41, (S)-1-(4-((4-(3-((2-(1-hydroxyethyl)-1H-imidazol-1-yl)methyl)isoxazol-5-yl)phenyl)ethynyl)phenyl)piperidin-4-ol]: the IC50 amounted to 26.3 nM. Consider `C[C@H](O)c1nccn1Cc1cc(-c2ccc(C#Cc3ccc(CN4CC(CO)C4)nc3)cc2)on1` [Example 113, (S)-1-(1-((5-(4-((6-((3-(hydroxymethyl)azetidin-1-yl)methyl)pyridin-3-yl)ethynyl)phenyl)isoxazol-3-yl)methyl)-1H-imidazol-2-yl)ethan-1-ol], for which the half-inhibitory concentration (IC50) came to 24.6 nM.

For `C[C@H](O)c1nccn1Cc1cc(-c2ccc(C#Cc3ccc(CN4CC(C#N)C4)nc3)cc2)on1` [Example 119, (S)-1-((5-((4-(3-((2-(1-hydroxyethyl)-1H-imidazol-1-yl)methyl)isoxazol-5-yl)phenyl)ethynyl)pyridin-2-yl)methyl)azetidin-3-carbonitrile], the IC50 was 7.42 nM. On the same count and under the same terms, to `C[C@H](O)c1nccn1Cc1cc(-c2ccc(C#Cc3ccc(C#N)nc3)cc2)on1` [Example 120, (S)-5-((4-(3-((2-(1-hydroxyethyl)-1H-imidazol-1-yl)methyl)isoxazol-5-yl)phenyl)ethynyl)picolinonitrile] belongs 77.1 nM. Turning to `C[C@H](O)c1nccn1Cc1cc(-c2ccc(C#Cc3ccc(C(=O)N4CC(O)C4)cc3)cc2)on1` [Example 68, (S)-(3-hydroxyazetidin-1-yl)(4-((4-(3-((2-(1-hydroxyethyl)-1 H-imidazol-1-yl)methyl)isoxazol-5-yl)phenyl)ethynyl)phenyl)methanone], the IC50 was 68.3 nM. On the same count and under the same terms, to `C[C@H](O)c1nccn1Cc1cc(-c2ccc(C#Cc3ccccc3C(=O)O)cc2)on1` [Example 106, (S)-2-((4-(3-((2-(1-hydroxyethyl)-1H-imidazol-1-yl)methyl)isoxazol-5-yl)phenyl)ethynyl) benzoic acid] belongs 68.9 nM; to `C[C@H](O)c1nccn1Cc1cc(-c2ccc(C#Cc3ccc(OC4CCC(C(=O)O)CC4)cc3)cc2)on1` (stereo partly drawn) [Example 79, (S)-4-(4-((4-(3-((2-(1-hydroxyethyl)-1H-imidazol-1-yl)methyl)isoxazol-5-yl)phenyl)ethynyl)phenoxy)cyclohexane-1-carboxylic acid], 42.5 nM; to `C[C@H](O)c1nccn1Cc1cc(-c2ccc(C#Cc3ccc(CN4CC(CC(N)=O)C4)nc3)cc2)on1` [Example 122, (S)-2-(1-((5-((4-(3-((2-(1-hydroxyethyl)-1H-imidazol-1-yl)methyl)isoxazol-5-yl)phenyl)ethynyl)pyridin-2-yl)methyl)azetidin-3-yl)acetamide], 6.71 nM.

Consider `C[C@H](O)c1nccn1Cc1cc(-c2ccc(C#Cc3ccc(CN4CC(C(N)=O)C4)nc3)cc2)on1` [Example 123, (S)-1-((5-((4-(3-((2-(1-hydroxyethyl)-1H-imidazol-1-yl)methyl)isoxazol-5-yl)phenyl)ethynyl)pyridin-2-yl)methyl)azetidin-3-carboxamide], for which the IC50 is 8.22 nM. The same measure, in the same setting: to `C[C@H](O)c1nccn1Cc1cc(-c2ccc(C#Cc3ccc(CN4CC(C(=O)O)C4)nc3)cc2)on1` [Example 117, (S)-1-((5-((4-(3-((2-(1-hydroxyethyl)-1H-imidazol-1-yl)methyl)isoxazol-5-yl)phenyl)ethynyl)pyridin-2-yl)methyl)azetidin-3-carboxylic acid] belongs 18.5 nM; to `C[C@H](O)c1nccn1Cc1cc(-c2ccc(C#Cc3ccc(CN4CC(O)C4)nc3)cc2)on1` [Example 121, (S)-1-((5-((4-(3-((2-(1-hydroxyethyl)-1H-imidazol-1-yl)methyl)isoxazol-5-yl)phenyl)ethynyl)pyridin-2-yl)methyl)azetidin-3-ol], 22.3 nM. Still for that read-out and setting: the value for `CC(=O)c1ccc(C#Cc2ccc(-c3cc(Cn4ccnc4[C@H](C)O)no3)cc2)cn1` [Example 103, (S)-1-(5-((4-(3-((2-(1-hydroxyethyl)-1H-imidazol-1-yl)methyl)isoxazol-5-yl)phenyl)ethynyl)pyridin-2-yl)ethan-1-one] was 46.8 nM. With `C[C@H](O)c1nccn1Cc1cc(-c2ccc(C#Cc3ccc(Cn4ccnc4)cc3)cc2)on1` [Example 98, (S)-1-(1-((5-(4-((4-((1H-imida-zol-1-yl)methyl)phenyl)ethynyl)phenyl)isoxazol-3-yl)methyl)-1H-imidazol-2-yl)ethan-1-ol], the IC50 was 78.5 nM. Turning to `C[C@H](O)c1nccn1Cc1cc(-c2ccc(C#Cc3ccc(C(=O)NCCO)nc3)cc2)on1` [Example 105, (S)-N-(2-hydroxyethyl)-5-((4-(3-((2-(1-hydroxyethyl)-1H-imidazol-1-yl)methyl)isoxazol-5-yl)phenyl)ethynyl) picolinamide], the IC50 is 22.6 nM.

On to `C[C@H](O)c1nccn1Cc1cc(-c2ccc(C#Cc3ccc(C(=O)NCC(=O)O)cc3)cc2)on1` [Example 74, (S)-(4-((4-(3-((2-(1-hydroxy-ethyl)-1H-imidazol-1-yl)methyl)isoxazol-5-yl)phenyl)ethynyl)benzoyl)glycinate], for which the IC50 is 21.2 nM.

For the compound `C[C@H](O)c1nccn1Cc1cc(-c2ccc(C#Cc3ccc(C(C)(C)N4CCOCC4)cc3)cc2)on1` [Example 94, (S)-1-(1-((5-(4-((4-(2-morpho-linopropan-2-yl)phenyl)ethynyl)phenyl)isoxazol-3-yl)methyl)-1H-imidazol-2-yl)ethan-1-ol], the IC50 is 76.5 nM.

Another test deals with E. coli ATCC 25922. Kind of test: Antibacterial activity, MIC by broth microdilution (CLSI). To be noted: Escherichia coli, ATCC25922; E. coli ATCC 25922, 35° C., 18 to 24 hours; read-out: MIC(E. coli). It is filed as cell-based. The procedure: The in vitro minimum inhibitory concentration (MIC) was determined in accordance with the CLSI guidelines, and was measured using the broth microdilution method.
The experimental process is briefly described as follows: The test compound was dissolved in DMSO to prepare a […] stock solution, which was then prepared into 11 twice-diluted 100× high-concentration working solutions (the final concentration of the system was 64 μg/mL-0.06 μg/mL) using DMSO. The strains (K. pneumoniae ATCC13883 and E. coli ATCC 25922) frozen in −80° C. glycerol were inoculated into solid agar medium, placed in an incubator at 35° C. for 18-24 hours of incubation. After the preparation of strains was completed, an appropriate amount of solid plate culture was collected, resuspended in physiological saline, and mixed well. The bacterial suspension was adjusted to a suitable turbidity using a turbidity meter, containing approximately 1×10^8 cfu/mL bacteria. Then the bacterial suspension with the adjusted turbidity was diluted to a bacterial concentration of 5×10^5 cfu/ml using the culture medium for measurement, to complete the preparation of the inoculum solution. 198 μL of the inoculum solution was inoculated into a 96-well plate, and then added with 2 μL of a 100× high-concentration working solution of the compound. Then the 96-well plate was placed at 35° C. for 18 to 24 hours of incubation.
Take `C[C@H](O)c1nccn1Cc1cc(-c2ccc(C#Cc3ccc(C(=O)N4CCC(O)CC4)cc3)cc2)on1` [Example 67, (S)-(4-((4-(3-((2-(1-hydroxy-ethyl)-1H-imidazol-1-yl)methyl)isoxazol-5-yl)phenyl)ethynyl)phenyl)(4-hydroxypiperidin-1-yl)methanone]: the minimal inhibitory concentration (MIC) worked out at 2 µg/mL (≈ 4.03 µM). The same measure, in the same setting: the value for `C[C@H](O)c1nccn1Cc1cc(-c2ccc(C#Cc3ccc(C(=O)NCCC(=O)O)cc3)cc2)on1` [Example 73, (S)-3-(4-((4-(3-((2-(1-hydroxyethyl)-1H-imidazol-1-yl)methyl)isoxazol-5-yl)phenyl)ethynyl)benzamido)propanoic acid] was 8 µg/mL (≈ 16.5 µM).
